Bridge positions count the residues as written; N and C are the ends. Square brackets hold non-standard residues; d marks the D form. Peptide text beside a SMILES is read from it. * marks the point of attachment. ξ: configuration not given here. Phe(4-COOH) = N[C@@H](Cc1ccc(C(=O)O)cc1)C(=O)O; Bip = N[C@@H](Cc1ccc(-c2ccccc2)cc1)C(=O)O; Phe(3-Me) = Cc1cccc(C[C@H](N)C(=O)O)c1; Cha = N[C@@H](CC1CCCCC1)C(=O)O; Thr(3ξ) = CC(O)[C@H](N)C(=O)O; Carboxymethyl = O=C(O)C*; Orn = NCCC[C@H](N)C(=O)O; Aun = NCCCCCCCCCCC(=O)O; Dab = NCC[C@H](N)C(=O)O; Dap = NC[C@H](N)C(=O)O; AEEA = NCCOCCOCC(=O)O

T1 sequence (Q15116 25-288): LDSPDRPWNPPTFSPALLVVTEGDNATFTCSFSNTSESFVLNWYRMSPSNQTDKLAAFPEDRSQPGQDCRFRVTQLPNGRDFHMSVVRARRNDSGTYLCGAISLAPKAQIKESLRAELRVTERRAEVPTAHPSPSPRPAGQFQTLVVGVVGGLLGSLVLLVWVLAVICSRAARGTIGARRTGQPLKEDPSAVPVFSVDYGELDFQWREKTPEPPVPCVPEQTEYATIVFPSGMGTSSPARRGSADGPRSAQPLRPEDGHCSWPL

The assay addresses T1, PD-1/PD-L1 interaction (PE-labeled human PD-L1-Ig binding to Jurkat cell line over-expressing human PD-1) (Homo sapiens, UniProt Q15116).
T1 construct: expressed in transfected cells; host or cells: Jurkat
Put plainly: Jurkat-PD-1 Cell Binding High-Content Screening Assay (CBA). The format is cell-based. The note with it: Jurkat cell line over-expressing human PD-1; PE-labeled PD-L1-Ig 20 nM final; read-out: Jurkat hPD1-PDL1 IC50. Put shortly:
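Jurkat-hPD-1 cells, DMEM/10% FCS; cpd 2 h 37° C; PE-PD-L1-Ig 20 nM final, 1 h; 4% PFA fix + Hoechst 33342, 3× dPBS wash; high-content imaging read-out.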
For `Cc1cccc(C[C@@H]2NC(=O)[C@H](CC(=O)O)NC(=O)[C@H](Cc3ccc(OCC(=O)O)cc3)NC(=O)[C@H](CN)NC(=O)CSC[C@@H](C(=O)N[C@@H](CCN)C(=O)NCCOCCOCC(=O)NCCCCCCCCCCC(=O)O)NC(=O)[C@H](C(C)O)NC(=O)[C@H](C(C)C)NC(=O)[C@H](CC3CCCCC3)NC(=O)[C@H](CCN)NC(=O)[C@@H](CC(C)C)NC(=O)[C@H](CCCN)NC(=O)[C@H](Cc3ccc(O)cc3)NC(=O)[C@H](Cc3ccc(-c4ccccc4)cc3)NC(=O)[C@H](C(C)C)NC2=O)c1` (stereo partly drawn) [Compound 2587] ({CH2CO}-[Dap]Y(Carboxymethyl)D[Phe(3-Me)]V[Bip]Y[Orn][dL][Dab][Cha]V[Thr(3ξ)]C[Dab][AEEA][Aun]-OH; thioether N-14), the IC50 (commonly the concentration that gives 50% inhibition) was determined as 8.8 nM. The same measure for `Cc1cccc(C[C@@H]2NC(=O)[C@H](CC(=O)O)NC(=O)[C@H](Cc3ccc(OCC(=O)O)cc3)NC(=O)[C@H](CN)NC(=O)CSC[C@@H](C(=O)N[C@@H](CCN)C(=O)NCCOCCOCC(=O)NCCCCCCCCCCC(=O)O)NC(=O)[C@H](CCCN)NC(=O)[C@H](C(C)C)NC(=O)[C@H](CC3CCCCC3)NC(=O)[C@H](CCN)NC(=O)[C@@H](CC(C)C)NC(=O)[C@H](CCCN)NC(=O)[C@H](Cc3ccc(O)cc3)NC(=O)[C@H](Cc3ccc(-c4ccccc4)cc3)NC(=O)[C@H](C(C)C)NC2=O)c1` [Compound 2588] ({CH2CO}-[Dap]Y(Carboxymethyl)D[Phe(3-Me)]V[Bip]Y[Orn][dL][Dab][Cha]V[Orn]C[Dab][AEEA][Aun]-OH; thioether N-14): 5.3 nM; for `Cc1cccc(C[C@@H]2NC(=O)[C@H](CC(=O)O)NC(=O)[C@H](Cc3ccc(OCC(=O)O)cc3)NC(=O)[C@H](CN)NC(=O)CSC[C@@H](C(=O)N[C@@H](CCCCN)C(=O)NCCCCCCCCCCC(=O)O)NC(=O)[C@H](C(C)O)NC(=O)[C@H](C(C)C)NC(=O)[C@H](CC3CCCCC3)NC(=O)[C@H](CCN)NC(=O)[C@@H](CC(C)C)NC(=O)[C@H](CCCN)NC(=O)[C@H](Cc3ccc(O)cc3)NC(=O)[C@H](Cc3ccc(-c4ccccc4)cc3)NC(=O)[C@H](C(C)C)NC2=O)c1` (stereo partly drawn) [Compound 2589] ({CH2CO}-[Dap]Y(Carboxymethyl)D[Phe(3-Me)]V[Bip]Y[Orn][dL][Dab][Cha]V[Thr(3ξ)]CK[Aun]-OH; thioether N-14): 13.6 nM. Next, `Cc1cccc(C[C@@H]2NC(=O)[C@H](CC(=O)O)NC(=O)[C@H](Cc3ccc(OCC(=O)O)cc3)NC(=O)[C@H](CN)NC(=O)CSC[C@@H](C(=O)N[C@@H](CCCCN)C(=O)NCCCCCCCCCCC(=O)O)NC(=O)[C@H](CCCN)NC(=O)[C@H](C(C)C)NC(=O)[C@H](CC3CCCCC3)NC(=O)[C@H](CCN)NC(=O)[C@@H](CC(C)C)NC(=O)[C@H](CCCN)NC(=O)[C@H](Cc3ccc(O)cc3)NC(=O)[C@H](Cc3ccc(-c4ccccc4)cc3)NC(=O)[C@H](C(C)C)NC2=O)c1` [Compound 2590] ({CH2CO}-[Dap]Y(Carboxymethyl)D[Phe(3-Me)]V[Bip]Y[Orn][dL][Dab][Cha]V[Orn]CK[Aun]-OH; thioether N-14): 9.5 nM; `Cc1cccc(C[C@@H]2NC(=O)[C@H](CC(=O)O)NC(=O)[C@H](Cc3ccc(OCC(=O)O)cc3)NC(=O)[C@H](CN)NC(=O)CSC[C@@H](C(=O)NCCOCCOCC(=O)N[C@@H](CCN)C(=O)NCCCCCCCCCCC(=O)O)NC(=O)[C@H](C(C)O)NC(=O)[C@H](C(C)C)NC(=O)[C@H](CC3CCCCC3)NC(=O)[C@H](CCN)NC(=O)[C@@H](CC(C)C)NC(=O)[C@H](CCCN)NC(=O)[C@H](Cc3ccc(O)cc3)NC(=O)[C@H](Cc3ccc(-c4ccccc4)cc3)NC(=O)[C@H](C(C)C)NC2=O)c1` (stereo partly drawn) [Compound 2591] ({CH2CO}-[Dap]Y(Carboxymethyl)D[Phe(3-Me)]V[Bip]Y[Orn][dL][Dab][Cha]V[Thr(3ξ)]C[AEEA][Dab][Aun]-OH; thioether N-14): 9.5 nM; `Cc1cccc(C[C@@H]2NC(=O)[C@H](CC(=O)O)NC(=O)[C@H](Cc3ccc(OCC(=O)O)cc3)NC(=O)[C@H](CN)NC(=O)CSC[C@@H](C(=O)NCCOCCOCC(=O)N[C@@H](CCN)C(=O)NCCCCCCCCCCC(=O)O)NC(=O)[C@H](CCCN)NC(=O)[C@H](C(C)C)NC(=O)[C@H](CC3CCCCC3)NC(=O)[C@H](CCN)NC(=O)[C@@H](CC(C)C)NC(=O)[C@H](CCCN)NC(=O)[C@H](Cc3ccc(O)cc3)NC(=O)[C@H](Cc3ccc(-c4ccccc4)cc3)NC(=O)[C@H](C(C)C)NC2=O)c1` [Compound 2592] ({CH2CO}-[Dap]Y(Carboxymethyl)D[Phe(3-Me)]V[Bip]Y[Orn][dL][Dab][Cha]V[Orn]C[AEEA][Dab][Aun]-OH; thioether N-14): 10.8 nM. Next, `CC(C)C[C@H]1NC(=O)[C@H](CCCN)NC(=O)[C@H](C(C)C)NC(=O)[C@H](Cc2ccc(-c3ccccc3)cc2)NC(=O)[C@H](C(C)C)NC(=O)[C@H](Cc2c[nH]c3ccccc23)NC(=O)[C@H](CC(=O)O)NC(=O)[C@H](Cc2ccc(C(=O)O)cc2)NC(=O)[C@H](Cc2ccc(OCC(=O)O)cc2)NC(=O)CSC[C@@H](C(=O)NCCOCCOCC(=O)N[C@@H](CCCCN)C(=O)NCCCCCCCCCCC(=O)O)NC(=O)[C@H](CCCCN)NC(=O)[C@H](C(C)C)NC(=O)[C@H](CC2CCCCC2)NC(=O)[C@H](CCN)NC1=O` [Compound 2593] ({CH2CO}-Y(Carboxymethyl)[Phe(4-COOH)]DWV[Bip]V[Orn][dL][Dab][Cha]VKC[AEEA]K[Aun]-OH; thioether N-14): 18.4 nM; `CC(C)C[C@H]1NC(=O)[C@H](CCCN)NC(=O)[C@H](C(C)C)NC(=O)[C@H](Cc2ccc(-c3ccccc3)cc2)NC(=O)[C@H](C(C)C)NC(=O)[C@H](Cc2c[nH]c3ccccc23)NC(=O)[C@H](CC(=O)O)NC(=O)[C@H](Cc2ccc(OCC(=O)O)cc2)NC(=O)[C@H](CN)NC(=O)CSC[C@@H](C(=O)NCCOCCOCC(=O)N[C@@H](CCCCN)C(=O)NCCCCCCCCCCC(=O)O)NC(=O)[C@H](CCCCN)NC(=O)[C@H](C(C)C)NC(=O)[C@H](CC2CCCCC2)NC(=O)[C@H](CCN)NC1=O` [Compound 2595] ({CH2CO}-[Dap]Y(Carboxymethyl)DWV[Bip]V[Orn][dL][Dab][Cha]VKC[AEEA]K[Aun]-OH; thioether N-14): 34.1 nM; `Cc1cccc(C[C@@H]2NC(=O)[C@H](CC(=O)O)NC(=O)[C@H](Cc3ccc(OCC(=O)O)cc3)NC(=O)[C@H](CN)NC(=O)CSC[C@@H](C(=O)NCCOCCOCC(=O)N[C@@H](CCCCN)C(=O)NCCCCCCCCCCC(=O)O)NC(=O)[C@H](CN)NC(=O)[C@H](C(C)C)NC(=O)[C@H](CC3CCCCC3)NC(=O)[C@H](CCN)NC(=O)[C@@H](CC(C)C)NC(=O)[C@H](CCCN)NC(=O)[C@H](C(C)C)NC(=O)[C@H](Cc3ccc(-c4ccccc4)cc3)NC(=O)[C@H](C(C)C)NC2=O)c1` [Compound 2596] ({CH2CO}-[Dap]Y(Carboxymethyl)D[Phe(3-Me)]V[Bip]V[Orn][dL][Dab][Cha]V[Dap]C[AEEA]K[Aun]-OH; thioether N-14): 9.6 nM.

For `Cc1cccc(C[C@@H]2NC(=O)[C@H](CC(=O)O)NC(=O)[C@H](Cc3ccc(OCC(=O)O)cc3)NC(=O)[C@H](CN)NC(=O)CSC[C@@H](C(=O)NCCOCCOCC(=O)N[C@@H](CCCCN)C(=O)NCCCCCCCCCCC(=O)O)NC(=O)[C@H](CCCN)NC(=O)[C@H](C(C)C)NC(=O)[C@H](CC3CCCCC3)NC(=O)[C@H](CCN)NC(=O)[C@@H](CC(C)C)NC(=O)[C@H](CCCN)NC(=O)[C@H](C(C)C)NC(=O)[C@H](Cc3ccc(-c4ccccc4)cc3)NC(=O)[C@H](C(C)C)NC2=O)c1` [Compound 2597] ({CH2CO}-[Dap]Y(Carboxymethyl)D[Phe(3-Me)]V[Bip]V[Orn][dL][Dab][Cha]V[Orn]C[AEEA]K[Aun]-OH; thioether N-14), the IC50 was found to be 8.9 nM.

These data come from patent US20260022142A1, “MACROCYCLIC IMMUNOMODULATORS” (Bristol-Myers Squibb Company, priority 2022, published 2026).
